Values after ≈ are worked out from the molar mass of the structure shown.
What was measured:
MCF7 = assay: Cytotoxicity against Homo sapiens (human) MCF7 cells after 24 hr by MTT assay; type: functional, cell-based; conditions: MCF7, 24 h
A549 = assay: Cytotoxicity against Homo sapiens (human) A549 cells after 24 hr by MTT assay; type: functional, cell-based; conditions: A549, 24 h
HT-29 = assay: Cytotoxicity against Homo sapiens (human) HT-29 cells after 24 hr by MTT assay; type: functional, cell-based; conditions: HT-29, 24 h
HeLa = assay: Cytotoxicity against Homo sapiens (human) HeLa cells after 24 hr by MTT assay; type: functional, cell-based
Aspergillus niger = assay: Antifungal activity against Aspergillus niger ATCC 6275 after 48 hr by NCCLS two-fold serial dilution method; type: functional; conditions: ATCC 6275, 48 h
Aspergillus flavus = assay: Antifungal activity against Aspergillus flavus NCIM 524 after 48 hr by NCCLS two-foldserial dilution method; type: functional; conditions: NCIM 524, 48 h
Cryptococcus neoformans = assay: Antifungal activity against Cryptococcus neoformans clinical isolate after 48 hr by NCCLS two-fold serial dilution method; type: functional
Candida albicans = assay: Antifungal activity against Candida albicans ATCC 2091 after 48 hr by NCCLS two-fold serial dilution method; type: functional; conditions: ATCC 2091, 48 h
Enterococcus faecalis = assay: Antibacterial activity against Enterococcus faecalis ATCC 35550 after 24 hr by NCCLS two-fold serial dilution method; type: functional; conditions: ATCC 35550, 24 h
Staphylococcus aureus = assay: Antibacterial activity against Staphylococcus aureus ATCC 25923 after 24 hr by NCCLS two fold serial dilution method; type: functional; conditions: ATCC 25923, 24 h
Pseudomonas aeruginosa = assay: Antibacterial activity against Pseudomonas aeruginosa ATCC 25619 after 24 hr by NCCLS two-fold serial dilution method; type: functional; conditions: ATCC 25619, 24 h
Escherichia coli = assay: Antibacterial activity against Escherichia coli ATCC 35218 after 24 hr by NCCLS two-fold serial dilution method; type: functional; conditions: ATCC 35218, 24 h

Compound | IC50 (MCF7) [µM] | IC50 (A549) [µM] | IC50 (HT-29) [µM] | IC50 (HeLa) [µM] | MIC (Aspergillus niger) [µg/mL] | MIC (Aspergillus flavus) [µg/mL] | MIC (Cryptococcus neoformans) [µg/mL] | MIC (Candida albicans) [µg/mL] | MIC (Enterococcus faecalis) [µg/mL] | MIC (Staphylococcus aureus) [µg/mL] | MIC (Pseudomonas aeruginosa) [µg/mL] | MIC (Escherichia coli) [µg/mL]
O=C(CC1SC(=O)NC1=O)Nc1nnc(-c2cccc([N+](=O)[O-])c2)s1 (centres undefined) | 67 | 78 | 72 | 68 | 64 (≈ 169 µM) | 64 (≈ 169 µM) | 64 (≈ 169 µM) | 64 (≈ 169 µM) | 64 (≈ 169 µM) | 32 (≈ 84.3 µM) | 32 (≈ 84.3 µM) | 64 (≈ 169 µM)
O=C(CC1SC(=O)NC1=O)Nc1nnc(-c2ccccc2[N+](=O)[O-])s1 (centres undefined) | 78 | 72 | 68 | 50 | 16 (≈ 42.2 µM) | 64 (≈ 169 µM) | 64 (≈ 169 µM) | 64 (≈ 169 µM) | 64 (≈ 169 µM) | 32 (≈ 84.3 µM) | 64 (≈ 169 µM) | 64 (≈ 169 µM)
O=C(CC1SC(=O)NC1=O)Nc1nnc(-c2ccccc2)s1 (centres undefined) | 80 | 80 | 78 | 62 | 64 (≈ 191 µM) | 64 (≈ 191 µM) | 64 (≈ 191 µM) | 64 (≈ 191 µM) | 64 (≈ 191 µM) | 32 (≈ 95.7 µM) | 64 (≈ 191 µM) | 64 (≈ 191 µM)
O=C(CC1SC(=O)NC1=O)Nc1nnc(-c2ccccc2Cl)s1 (centres undefined) | 84 | 62 | 66 | 60 | 16 (≈ 43.4 µM) | 32 (≈ 86.8 µM) | 16 (≈ 43.4 µM) | 16 (≈ 43.4 µM) | 16 (≈ 43.4 µM) | 16 (≈ 43.4 µM) | 32 (≈ 86.8 µM) | 32 (≈ 86.8 µM)
Cc1ccc(-c2nnc(NC(=O)CC3SC(=O)NC3=O)s2)cc1 (centres undefined) | 52 | 46 | 58 | 50 | 32 (≈ 91.8 µM) | 32 (≈ 91.8 µM) | 32 (≈ 91.8 µM) | 16 (≈ 45.9 µM) | 4 (≈ 11.5 µM) | 8 (≈ 23 µM) | 16 (≈ 45.9 µM) | 16 (≈ 45.9 µM)
CC1(C)S[C@@H]2[C@H](NC(=O)[C@H](N)c3ccccc3)C(=O)N2[C@H]1C(=O)O [AMPICILLIN] |  |  |  |  |  |  |  |  | 2 (≈ 5.72 µM) | 2 (≈ 5.72 µM) |  | 
COc1ccc(-c2nnc(NC(=O)CC3SC(=O)NC3=O)s2)cc1OC (centres undefined) | 38 | 35 | 42 | 40 | 32 (≈ 81.1 µM) | 16 (≈ 40.6 µM) | 16 (≈ 40.6 µM) | 16 (≈ 40.6 µM) | 32 (≈ 81.1 µM) | 16 (≈ 40.6 µM) | 16 (≈ 40.6 µM) | 16 (≈ 40.6 µM)
COc1cccc(-c2nnc(NC(=O)CC3SC(=O)NC3=O)s2)c1 (centres undefined) | 58 | 60 | 56 | 54 | 32 (≈ 87.8 µM) | 16 (≈ 43.9 µM) | 16 (≈ 43.9 µM) | 16 (≈ 43.9 µM) | 8 (≈ 22 µM) | 4 (≈ 11 µM) | 32 (≈ 87.8 µM) | 16 (≈ 43.9 µM)
O=C(CC1SC(=O)NC1=O)Nc1nnc(-c2ccc(Cl)cc2)s1 (centres undefined) | 68 | 60 | 64 | 62 | 16 (≈ 43.4 µM) | 16 (≈ 43.4 µM) | 16 (≈ 43.4 µM) | 16 (≈ 43.4 µM) | 32 (≈ 86.8 µM) | 4 (≈ 10.8 µM) | 32 (≈ 86.8 µM) | 32 (≈ 86.8 µM)
CC(=O)N1CCN(c2ccc(OCC3COC(Cn4ccnc4)(c4ccc(Cl)cc4Cl)O3)cc2)CC1 (centres undefined) [KETOCONAZOLE] |  |  |  |  | 2 (≈ 3.76 µM) | 1 (≈ 1.88 µM) | 2 (≈ 3.76 µM) | 2 (≈ 3.76 µM) |  |  |  | 
COc1cc(-c2nnc(NC(=O)CC3SC(=O)NC3=O)s2)cc(OC)c1OC (centres undefined) | 36 | 30 | 35 | 33 | 16 (≈ 37.7 µM) | 16 (≈ 37.7 µM) | 32 (≈ 75.4 µM) | 16 (≈ 37.7 µM) | 16 (≈ 37.7 µM) | 16 (≈ 37.7 µM) | 16 (≈ 37.7 µM) | 16 (≈ 37.7 µM)
O=C(CC1SC(=O)NC1=O)Nc1nnc(-c2ccc([N+](=O)[O-])cc2)s1 (centres undefined) | 72 | 68 | 60 | 50 | 64 (≈ 169 µM) | 32 (≈ 84.3 µM) | 64 (≈ 169 µM) | 64 (≈ 169 µM) | 32 (≈ 84.3 µM) | 32 (≈ 84.3 µM) | 64 (≈ 169 µM) | 64 (≈ 169 µM)
COc1ccc(-c2nnc(NC(=O)CC3SC(=O)NC3=O)s2)cc1 (centres undefined) | 42 | 45 | 44 | 42 | 16 (≈ 43.9 µM) | 32 (≈ 87.8 µM) | 16 (≈ 43.9 µM) | 16 (≈ 43.9 µM) | 4 (≈ 11 µM) | 16 (≈ 43.9 µM) | 16 (≈ 43.9 µM) | 32 (≈ 87.8 µM)
O=C(CC1SC(=O)NC1=O)Nc1nnc(C(F)(F)F)s1 (centres undefined) | 62 | 60 | 50 | 42 | 16 (≈ 49 µM) | 32 (≈ 98.1 µM) | 16 (≈ 49 µM) | 16 (≈ 49 µM) | 32 (≈ 98.1 µM) | 32 (≈ 98.1 µM) | 32 (≈ 98.1 µM) | 32 (≈ 98.1 µM)
O=C(CC1SC(=O)NC1=O)Nc1nnc(-c2ccc(Br)cc2)s1 (centres undefined) | 72 | 68 | 60 | 52 | 16 (≈ 38.7 µM) | 16 (≈ 38.7 µM) | 16 (≈ 38.7 µM) | 16 (≈ 38.7 µM) | 32 (≈ 77.4 µM) | 8 (≈ 19.4 µM) | 32 (≈ 77.4 µM) | 32 (≈ 77.4 µM)
O=C(CC1SC(=O)NC1=O)Nc1nnc(-c2ccc(F)cc2)s1 (centres undefined) | 60 | 50 | 42 | 50 | 4 (≈ 11.4 µM) | 8 (≈ 22.7 µM) | 8 (≈ 22.7 µM) | 8 (≈ 22.7 µM) | 4 (≈ 11.4 µM) | 4 (≈ 11.4 µM) | 8 (≈ 22.7 µM) | 8 (≈ 22.7 µM)

Reference: ChEMBL document CHEMBL3046052, “New thiazolidinedione-5-acetic acid amide derivatives: synthesis, characterization and investigation of antimicrobial and cytotoxic properties” (Med Chem Res, 2012)
